{
  "source": "PubChem BioAssay AID254",
  "about": "(DTP/NCI, 2004)",
  "tested_on": "L1210 leukemia iv in BDF1 mice, survival T/C",
  "assay": "NCI In Vivo Anticancer Drug Screen. Data for tumor model L1210 Leukemia (intravenous) in B6D2F1 (BDF1) mice",
  "settings": "higher = longer survival",
  "protocol": "The antitumor activity of compounds was measured in mice bearing transplantable tumors. Survival or tumor size were measured and the results are expressed as the measurement made in the treated group (T) divided by the measurement made in the vehicle treated control group (C). The tumor model used in this assay is L1210 Leukemia (intravenous) in B6D2F1 (BDF1) mice",
  "key": {"[1]": {"settings": "endpoint: mean survival time, dose: 4.0 mg/kg/injection, schedule: Q01DX001 (ip), vehicle: other"}, "[2]": {"settings": "endpoint: mean survival time, dose: 8.0 mg/kg/injection, schedule: Q01DX001 (ip), vehicle: other"}},
  "note": "Where “and” joins values, the source holds several entries; their conditions need not be identical. Equal values may be shown once. Toxic doses and inconclusive results are not listed.",
  "data": [
    {"compound": "COc1cccc2c1C(=O)c1c(O)c3c(c(O)c1C2=O)C[C@@](O)(C(C)=O)C[C@@H]3OC1CC(N)C(O)C(C)O1", "note": "(stereo partly drawn)", "values": [
      {"measurement": "T/C", "setting": "endpoint: mean survival time, dose: 3.0 mg/kg/injection, schedule: Q04DX003 (iv), vehicle: water", "result": "216 % of control"},
      {"measurement": "T/C", "setting": "endpoint: mean survival time, dose: 5.0 mg/kg/injection, schedule: Q01DX001 (iv), vehicle: saline", "result": "105 % of control"},
      {"measurement": "T/C", "setting": "endpoint: mean survival time, dose: 5.0 mg/kg/injection, schedule: Q04DX003 (iv), vehicle: water", "result": "121 % of control"},
      {"measurement": "T/C", "setting": "endpoint: mean survival time, dose: 10.0 mg/kg/injection, schedule: Q01DX001 (iv), vehicle: saline", "result": "115 % of control"},
      {"measurement": "T/C", "setting": "endpoint: mean survival time, dose: 14.0 mg/kg/injection, schedule: Q04DX003 (iv), vehicle: water", "result": "160 % of control"},
      {"measurement": "T/C", "setting": "endpoint: mean survival time, dose: 20.0 mg/kg/injection, schedule: Q01DX001 (iv), vehicle: saline", "result": "150 % of control"},
      {"measurement": "T/C", "setting": "endpoint: mean survival time, dose: 23.0 mg/kg/injection, schedule: Q04DX003 (iv), vehicle: water", "result": "84 % of control"}
    ]},
    {"compound": "O=NN(CCCl)C(=O)NC1CSCSC1", "values": [
      {"measurement": "T/C", "setting": "endpoint: mean survival time, dose: 2.0 mg/kg/injection, schedule: Q01DX001 (ip), vehicle: other", "result": "106 % of control and 102 % of control"},
      {"measurement": "T/C", "setting": "[1]", "result": "109 % of control"},
      {"measurement": "T/C", "setting": "endpoint: mean survival time, dose: 4.5 mg/kg/injection, schedule: Q04DX004 (ip), vehicle: saline with Tween-80", "result": "293 % of control"},
      {"measurement": "T/C", "setting": "endpoint: mean survival time, dose: 7.0 mg/kg/injection, schedule: Q04DX004 (ip), vehicle: saline with Tween-80", "result": "443 % of control"},
      {"measurement": "T/C", "setting": "[2]", "result": "156 % of control and 161 % of control"},
      {"measurement": "T/C", "setting": "endpoint: mean survival time, dose: 11.0 mg/kg/injection, schedule: Q04DX004 (ip), vehicle: saline with Tween-80", "result": "735 % of control"},
      {"measurement": "T/C", "setting": "endpoint: mean survival time, dose: 16.5 mg/kg/injection, schedule: Q01DX001 (ip), vehicle: other", "result": "393 % of control and 311 % of control"},
      {"measurement": "T/C", "setting": "endpoint: mean survival time, dose: 16.5 mg/kg/injection, schedule: Q04DX004 (ip), vehicle: saline with Tween-80", "result": "1060 % of control"},
      {"measurement": "T/C", "setting": "endpoint: mean survival time, dose: 33.0 mg/kg/injection, schedule: Q01DX001 (ip), vehicle: other", "result": "490 % of control and 588 % of control"}
    ]},
    {"compound": "CC[C@]1(O)C[C@H]2CN(CCc3c([nH]c4ccccc34)[C@@](C(=O)OC)(c3cc4c(cc3OC)N(C=O)[C@H]3[C@@](O)(C(=O)OC)[C@H](OC(C)=O)[C@]5(CC)C=CCN6CC[C@]43[C@@H]65)C2)C1", "values": [
      {"measurement": "T/C", "setting": "endpoint: mean survival time, dose: 0.32 mg/kg/injection, schedule: Q01DX001 (ip), vehicle: saline", "result": "112 % of control"},
      {"measurement": "T/C", "setting": "endpoint: mean survival time, dose: 0.75 mg/kg/injection, schedule: Q01DX001 (ip), vehicle: saline", "result": "108 % of control"},
      {"measurement": "T/C", "setting": "endpoint: mean survival time, dose: 1.5 mg/kg/injection, schedule: Q01DX001 (ip), vehicle: saline", "result": "114 % of control"},
      {"measurement": "T/C", "setting": "endpoint: mean survival time, dose: 1.6 mg/kg/injection, schedule: Q01DX001 (ip), vehicle: saline", "result": "109 % of control"},
      {"measurement": "T/C", "setting": "endpoint: mean survival time, dose: 2.25 mg/kg/injection, schedule: Q01DX001 (ip), vehicle: saline", "result": "119 % of control"}
    ]},
    {"compound": "CCCCc1ccc2nc(NC(=O)OC)[nH]c2c1", "values": [
      {"measurement": "T/C", "setting": "endpoint: median survival time, dose: 30.0 mg/kg/injection, schedule: Q04DX003 (iv), vehicle: saline", "result": "100 % of control"},
      {"measurement": "T/C", "setting": "endpoint: median survival time, dose: 40.0 mg/kg/injection, schedule: Q04DX003 (iv), vehicle: saline", "result": "110 % of control"},
      {"measurement": "T/C", "setting": "endpoint: median survival time, dose: 50.0 mg/kg/injection, schedule: Q04DX003 (iv), vehicle: saline", "result": "113 % of control"}
    ]},
    {"compound": "O=NN(CCF)C(=O)NC1CCSCC1", "values": [
      {"measurement": "T/C", "setting": "endpoint: mean survival time, dose: 3.7 mg/kg/injection, schedule: Q01DX001 (ip), vehicle: other", "result": "154 % of control"},
      {"measurement": "T/C", "setting": "endpoint: mean survival time, dose: 7.0 mg/kg/injection, schedule: Q01DX001 (ip), vehicle: other", "result": "206 % of control and 227 % of control"},
      {"measurement": "T/C", "setting": "endpoint: mean survival time, dose: 15.0 mg/kg/injection, schedule: Q01DX001 (ip), vehicle: other", "result": "365 % of control and 575 % of control"},
      {"measurement": "T/C", "setting": "endpoint: mean survival time, dose: 31.0 mg/kg/injection, schedule: Q01DX001 (ip), vehicle: other", "result": "634 % of control and 642 % of control"},
      {"measurement": "T/C", "setting": "endpoint: mean survival time, dose: 62.0 mg/kg/injection, schedule: Q01DX001 (ip), vehicle: other", "result": "515 % of control and 856 % of control"}
    ]},
    {"compound": "O=NN(CCCl)C(=O)NC1CCC(=O)NC1=O", "note": "(stereo not drawn)", "values": [
      {"measurement": "T/C", "setting": "[1]", "result": "162 % of control and 175 % of control"},
      {"measurement": "T/C", "setting": "[2]", "result": "244 % of control and 260 % of control"},
      {"measurement": "T/C", "setting": "endpoint: mean survival time, dose: 17.0 mg/kg/injection, schedule: Q01DX001 (ip), vehicle: other", "result": "380 % of control and 428 % of control"},
      {"measurement": "T/C", "setting": "endpoint: mean survival time, dose: 35.0 mg/kg/injection, schedule: Q01DX001 (ip), vehicle: other", "result": "395 % of control and 570 % of control"}
    ]}
  ]
}
